Experimental data from patent US10919862B2, “Fused imidazoles as mIDH1 inhibitors” (BAYER PHARMA AKTIENGESELLSCHAFT, priority 2015, dated 2021).

Key:
[1] = molecular target: IDH1 R132H enzyme (Homo sapiens (Human), UniProt O75874, R132H); assay: Mutant IDH1 R132H biochemical assay; details: NADPH consumption, luminescent readout; 1.5 nM enzyme, 1 μM NADPH, 250 μM α-KG, 30 minutes, 32° C.
Procedure: Mutant IDH1 R132H Biochemical Assay
mIDH1 catalyzes the NADPH-dependent reduction of alpha-ketoglutarate (α-KG) to (2R)-2-hydroxyglutarate (2-HG). NADPH consumption was measured by luminescent readout.
The biochemical reactions were performed at 32° C. in 384-well plates using a reaction volume of 41 μL and the following assay buffer conditions: 50 mM Tris pH 7.5, 100 mM NaCl, 20 mM MgCl2, 0.05% BSA, 0.01% Brij, 1 μM NADPH, and 250 μM α-KG. The IDH1 R132H enzyme was used in a final concentration of 1.5 nM. Test compounds were used in a concentration range between 0.002 and 10 μM. The final DMSO concentration was 2.4%.
The reaction was incubated for 30 minutes, then 40 μL of detection mix (0.75 μg/ml Luciferase, 0.02 U/ml Oxidoreductase, 4 μg/mL FMN, 2 μL/ml decanal/ethanol, 50 mM Tris pH 7.5, 0.5% Glycerin, 0.01% Tween-20, 0.05% BSA) was added. Luminescence was measured on a luminescent reader (10 seconds measuring time, 1 second integration period, 30% sensitivity). The decrease in luminescence is proportional to mIDH1 activity. IC50 values are determined by interpolation from plots of relative luminescence versus inhibitor concentration.

[2] = tested on: LN229 R132H cells; assay: Mutant IDH1 cellular assay; assay type: cell-based; details: Homo sapiens, LN-229; 2-HG levels in medium of LN229 R132H cells, 24 hours, fluorescence readout
Procedure: Mutant IDH1 Cellular Assay
Levels of (2R)-2-hydroxyglutarate (2HG) were measured in medium of a cell line with overexpression of mutated isocitrate dehydrogenase (mIDH) protein. mIDH catalyzes the NADPH-dependent reduction of alpha-ketoglutarate to 2-HG. Cells (LN229 R132H, Mohrenz et al., Apoptosis (2013) 18:1416-1425) were grown in DMEM containing 10% FCS. They were harvested by trypsin and seeded into 96-well plates. Cells were incubated overnight at 37° C. in 5% CO2. The next day test compounds were added to each cell well. The final concentration of DMSO was 0.1% and DMSO controls were included. The plates were then placed in an incubator for 24 hours.
2-HG was measured according to Balss et al. (Acta Neuropathol (2012) 124: 883-891). Briefly, perchloric acid was added to each well and the plates were centrifuged. Aliquots are removed and incubated with hydroxyglutarate dehydrogenase (HGDH), diaphorase, NAD+, and resazurin. The conversion of resazurin to resorufin was detected by fluorescence spectroscopy at Ex 540 nm Em 600 nm. The increase in fluorescence is proportional to 2-HG production. IC50 values are determined by interpolation from plots of relative fluorescence vs inhibitor concentration.

IDH1 R132H enzyme, sequence (O75874 whole entry R132H): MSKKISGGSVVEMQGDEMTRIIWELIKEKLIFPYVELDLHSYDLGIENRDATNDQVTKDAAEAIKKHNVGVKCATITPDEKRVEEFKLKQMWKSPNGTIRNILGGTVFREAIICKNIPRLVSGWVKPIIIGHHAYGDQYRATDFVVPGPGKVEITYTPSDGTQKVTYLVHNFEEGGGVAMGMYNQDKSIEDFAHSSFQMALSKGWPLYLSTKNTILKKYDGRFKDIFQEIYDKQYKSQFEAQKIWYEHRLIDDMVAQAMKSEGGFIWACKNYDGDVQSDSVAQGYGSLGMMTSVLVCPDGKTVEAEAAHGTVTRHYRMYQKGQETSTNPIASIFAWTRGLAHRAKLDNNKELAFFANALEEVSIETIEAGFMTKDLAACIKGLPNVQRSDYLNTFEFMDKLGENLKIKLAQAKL

Structure (SMILES) | IC50 [1] [µM] | IC50 [2] [µM]
C[C@H]1C[C@@H](n2c(Nc3ccc(OC(F)(F)F)cc3)nc3cc(CCC(=O)O)ccc32)CC(C)(C)[C@@H]1O [Example 2-5, 3-(1-[(1R,4R,5S)-4-hydroxy-3,35-trimethylcyclohexyl]-2-{[4-(trifluoromethoxy)-phenyl]amino}-1H-benzimidazol-5-yl)propanoic acid] | 4.1 | –
C[C@H]1C[C@@H](n2c(Nc3ccc(OC(F)(F)F)cc3)nc3cc(C(=O)O)ccc32)CC(C)(CO)C1 (stereo partly drawn) [Example 2-1, 1-[(1R,5R)-3-(hydroxymethyl)-3,5-dimethylcyclohexyl]-2-{[4-(trifluoromethoxy)-phenyl]amino}-1H-benzimidazole-5-carboxylic acid] | 0.5 | –
C[C@H]1C[C@@H](n2c(Nc3ccc(OC(F)(F)F)cc3)nc3cc(C(=O)O)ccc32)CC(C)(C)[C@@H]1O [Example 2-2, 1-[(1R,4R,5S)-4-hydroxy-3,3,5-trimethylcyclohexyl]-2-{[4-(trifluoromethoxy)-phenyl]amino}-1H-benzimidazole-5-carboxylic acid] | 4.8 | –
C[C@H]1C[C@@H](n2c(Nc3ccc(OC(F)(F)F)cc3)nc3cc(CCC(=O)O)ccc32)CC(C)(CO)C1 (stereo partly drawn) [Example 2-4, 3-(1-[(1R,5R)-3-(hydroxymethyl)-3,5-dimethylcyclohexyl]-2-{[4-(trifluoromethoxy)-phenyl]amino}-1H-benzimidazol-5-yl)propanoic acid] | 0.27 | 2.2
CC1(C)C[C@@H](n2c(Nc3ccc(OC(F)(F)F)cc3)nc3cnccc32)C[C@@](C)(CO)C1 [Example 2-6, [(1 S,5R)-1,3,3-trimethyl-5-(2-{[4-(trifluoromethoxy)phenyl]amino}-1H-imidazo-[4,5-c]pyridin-1-yl)cyclohexyl]methanol] | 0.03 | 1.6
CC1(C)C[C@@H](CO)C[C@@H](n2c(Nc3ccc(OC(F)(F)F)cc3)nc3cc(CCC(=O)O)ccc32)C1 [Example 2-3, 3-(1-[(1R,5R)-5-(hydroxymethyl)-3,3-dimethylcyclohexyl]-2-{[4-(trifluoromethoxy)-phenyl]amino}-1H-benzimidazol-5-yl)propanoic acid] | 0.18 | 1.2
